Tested on: imagoes of the tiger mosquito, Aedes albopictus
Experiment: noxious-insect repellency test (treated forearm in a cage of tiger mosquitoes, percent repellency from biting marks)
Type: in vivo
Conditions: for noxious-insect repelling effect and durability (result in words): lotion or milky lotion containing the compound, tiger mosquito imagoes; for Percent repellency: an hour after application
Experimental: In each example, the noxious-insect repellency test was conducted as follows:
Test method of noxious-insect repelling effect and durability thereof In order to assess the repelling effect against imagoes of the tiger mosquito, Aedes albopictus, the following test was conducted at a room temperature of 30° C. and a relative humidity of 70% in an air-conditioned room. 10 ml each of test samples was applied to left and right forearms. Each treated forearm was introduced into a wire gauze cage (20 cm L.×15 cm Dia.) containing 50 female and 50 male tiger mosquitoes 5-7 days old after eclosion, for 15 minutes to afford time for biting. The assessment was repeated 30 minutes, 1 hour, 2 hours, 4 hours and 6 hours after the test sample was applied. The number of marks made by biting within each biting time was counted and a percent repellency was calculated using the following formula:
Percent repellency=(X−Y)/X×100 (%)
X: the number of the marks made by biting when the test sample was not applied,
Y: the number of the marks made by biting when the test sample was applied.

[1] = content 0.1% (wt. %) in 40 wt. % ethanol aqueous solution
[2] = content 1% (wt. %) in 40 wt. % ethanol aqueous solution
[3] = content 3% (wt. %) in 40 wt. % ethanol aqueous solution

SMILES | noxious-insect repelling effect and durability (result in words) | also measured
CCCCC(O)C1CC(C)CCC1=O (centres unmarked) [2-(1-hydroxyamyl)-4-methyl-cyclohexanone] | excellent noxious-insect repelling effect and durability | 
CCCC(O)C1C(O)CCC1CC (centres unmarked) [2-(1-hydroxybutyl)-3-ethyl-cyclopentanol] | excellent noxious-insect repelling effect and durability | 
CCCC(O)C1C(=O)CCC1CC (centres unmarked) [2-(1-hydroxybutyl)-3-ethyl-cyclopentanone] | excellent noxious-insect repelling effect and durability | 
CC(O)C1C(O)CCC(C)C1C (centres unmarked) [2-(1-hydroxyethyl)-3,4-dimethyl-cyclohexanol] | excellent noxious-insect repelling effect and durability | 
CC(O)C1C(=O)CCC(C)C1C (centres unmarked) [2-(1-hydroxyethyl)-3,4-dimethyl-cyclohexanone] | excellent noxious-insect repelling effect and durability | 
CC1CCC(O)C(C(C)O)C1 (centres unmarked) [2-(1-hydroxyethyl)-4-methyl-cyclohexanol] | excellent noxious-insect repelling effect and durability | 
CC1CCC(=O)C(C(C)O)C1 (centres unmarked) [2-(1-hydroxyethyl)-4-methyl-cyclohexanone] | excellent noxious-insect repelling effect and durability | 
CC(O)C1CCCCCCCCC1O (centres unmarked) [2-(1-hydroxyethyl)-cyclodecanol] | excellent noxious-insect repelling effect and durability | 
CC(O)C1CCCCCCCCCCC1=O (centres unmarked) [2-(1-hydroxyethyl)-cyclododecanone] | excellent noxious-insect repelling effect and durability | 
CC(O)C1CCCCCC1O (centres unmarked) [2-(1-hydroxyethyl)-cycloheptanol] | excellent noxious-insect repelling effect and durability | 
CC(O)C1CCCCCC1=O (centres unmarked) [2-(1-hydroxyethyl)-cycloheptanone] | excellent noxious-insect repelling effect and durability | 
CC(O)C1CCCCCCC1O (centres unmarked) [2-(1-hydroxyethyl)-cyclooctanol] | excellent noxious-insect repelling effect and durability | 
CC(O)C1CCCCCCC1=O (centres unmarked) [2-(1-hydroxyethyl)-cyclooctanone] | excellent noxious-insect repelling effect and durability | 
CC1CCC(C(C)(C)O)C1=O (centres unmarked) [2-(1-hydroxyisopropyl)-5-methyl-cyclopentanone] | excellent noxious-insect repelling effect and durability | 
CCC(O)C1CC(C)CCC1O (centres unmarked) [2-(1-hydroxypropyl)-4-methyl-cyclohexanol] | excellent noxious-insect repelling effect and durability | 
CCC1(CO)CCCCC1O (centres unmarked) [2-hydroxymethyl-2-ethyl-cyclohexanol] | excellent noxious-insect repelling effect and durability | 
CCC1(CO)CCCC1O (centres unmarked) [2-hydroxymethyl-2-ethyl-cyclopentanol] | excellent noxious-insect repelling effect and durability | 
CC(C)C1(CO)CCCCC1O (centres unmarked) [2-hydroxymethyl-2-isopropyl-cyclohexanol] | excellent noxious-insect repelling effect and durability | 
CC(C)C1(CO)CCCC1O (centres unmarked) [2-hydroxymethyl-2-isopropyl-cyclopentanol] | excellent noxious-insect repelling effect and durability | 
CCCCCCCCC1(CO)CCCCC1O (centres unmarked) [2-hydroxymethyl-2-octyl-cyclohexanol] | excellent noxious-insect repelling effect and durability | 
CCCCCCCCC1(CO)CCCC1O (centres unmarked) [2-hydroxymethyl-2-octyl-cyclopentanol] | excellent noxious-insect repelling effect and durability | 
CCCCCCCCCCCC1(CO)CCCCC1O (centres unmarked) [2-hydroxymethyl-2-undecyl-cyclohexanol] | excellent noxious-insect repelling effect and durability | 
CCCCCCCCCCCC1(CO)CCCC1O (centres unmarked) [2-hydroxymethyl-2-undecyl-cyclopentanol] | excellent noxious-insect repelling effect and durability | 
CC1CCC(=O)C(CO)C1C (centres unmarked) [2-hydroxymethyl-3,4-dimethyl-cyclohexanone] | excellent noxious-insect repelling effect and durability | 
CC(C)(C)C1CCC(O)C(CO)C1 (centres unmarked) [2-hydroxymethyl-4-(t-butyl)-cyclohexanol] | excellent noxious-insect repelling effect and durability | 

SMILES | noxious-insect repelling effect and durability (result in words) | also measured
CC(C)(C)C1CCC(=O)C(CO)C1 (centres unmarked) [2-hydroxymethyl-4-(t-butyl)-cyclohexanone] | excellent noxious-insect repelling effect and durability | 
CCC1CC(O)C(CO)C1 (centres unmarked) [2-hydroxymethyl-4-ethyl-cyclopentanol] | excellent noxious-insect repelling effect and durability | 
CCC1CC(=O)C(CO)C1 (centres unmarked) [2-hydroxymethyl-4-ethyl-cyclopentanone] | excellent noxious-insect repelling effect and durability | 
CC(C)C1CC(C)C(O)C(CO)C1 (centres unmarked) [2-hydroxymethyl-4-isopropyl-6-methyl-cyclohexanol] | excellent noxious-insect repelling effect and durability | 
CC1CC(C(C)C)CC(CO)C1=O (centres unmarked) [2-hydroxymethyl-4-isopropyl-6-methyl-cyclohexanone] | excellent noxious-insect repelling effect and durability | 
CC1CCC(=O)C(CO)C1 (centres unmarked) [2-hydroxymethyl-4-methyl-cyclohexanone] | excellent noxious-insect repelling effect and durability | 
O=C1CCCCCCCCCCC1CO (centres unmarked) [2-hydroxymethyl-cyclododecanone] | excellent noxious-insect repelling effect and durability | 
OCC1CCCCCCC1O (centres unmarked) [2-hydroxymethyl-cyclooctanol] | excellent noxious-insect repelling effect and durability | 
O=C1CCCCCCC1CO (centres unmarked) [2-hydroxymethyl-cyclooctanone] | excellent noxious-insect repelling effect and durability | 
CC(C)C(O)C1C2CCC(C)(C1O)C2(C)C (centres unmarked) [3-(1-hydroxy-2-methylpropyl)-borneol] | excellent noxious-insect repelling effect and durability | 
CC(C)C(O)C1C(=O)C2(C)CCC1C2(C)C (centres unmarked) [3-(1-hydroxy-2-methylpropyl)-camphor] | excellent noxious-insect repelling effect and durability | 
CCCC(O)C1C2CCC(C)(C1O)C2(C)C (centres unmarked) [3-(1-hydroxybutyl)-borneol] | excellent noxious-insect repelling effect and durability | 
CCCC(O)C1C(=O)C2(C)CCC1C2(C)C (centres unmarked) [3-(1-hydroxybutyl)-camphor] | excellent noxious-insect repelling effect and durability | 
CC(O)C1C2CCC(C)(C1O)C2(C)C (centres unmarked) [3-(1-hydroxyethyl)-borneol] | excellent noxious-insect repelling effect and durability | 
CC(O)C1C(=O)C2(C)CCC1C2(C)C (centres unmarked) [3-(1-hydroxyethyl)-camphor] | excellent noxious-insect repelling effect and durability | 
CCCCCC(O)C1C(=O)C2(C)CCC1C2(C)C (centres unmarked) [3-(1-hydroxyhexyl)-camphor, reference compound] | does not exhibit the repelling effect | 
CC12CCC(C(CO)C1=O)C2(C)C (centres unmarked) [3-(1-hydroxymethyl)-camphor] | excellent noxious-insect repelling effect and durability | 
CCC(O)C1C2CCC(C)(C1O)C2(C)C (centres unmarked) [3-(1-hydroxypropyl)-borneol] | excellent noxious-insect repelling effect and durability | 
CCC(O)C1C(=O)C2(C)CCC1C2(C)C (centres unmarked) [3-(1-hydroxypropyl)-camphor] | excellent noxious-insect repelling effect and durability | 
CC1CCC(C(C)(C)O)C(=O)C1C (centres unmarked) [8-hydroxy-2-methyl-p-menthan-3-one] |  | Percent repellency [1]: 30%; Percent repellency [2]: 70%; Percent repellency [3]: 94%
CC(C)C1CCC(C)C(CO)C1O (centres unmarked) [HMMO, 2-hydroxymethyl-menthol] | excellent noxious-insect repelling effect and durability | Percent repellency (content 0.05% (wt. %) in 40 wt. % ethanol aqueous solution): 18%; Percent repellency [1]: 48%; Percent repellency [2]: 78%; Percent repellency [3]: 92%
CC(C)C1CCC(C)C(CO)C1=O (centres unmarked) [HMMT, 2-hydroxymethyl-menthone] | excellent noxious-insect repelling effect and durability | 
CC1CCC(C(C)(C)O)C(O)C1C (centres unmarked) [MMD, p-menthane-2-methyl-3,8-diol] | excellent noxious-insect repelling effect and durability | 
C=C1C(C)CCC(C(C)(C)O)C1O (centres unmarked) [MMED, p-menthane-2-methylene-3,8-diol] | excellent noxious-insect repelling effect and durability | 
C=CCC1C(C)CCC(C(C)(C)O)C1O (centres unmarked) [p-menthane-2-(2-propenyl)-3,8-diol] | excellent noxious-insect repelling effect and durability | 

Reference: patent US6372804B1, “Noxious-insect repellent” (Kanebo, Ltd., priority 1991, dated 2002)
